Results published in article PMC2174028 (The Journal of Cell Biology, 2002).

B1: sPSGL-1: recombinant soluble form of human PSGL-1 comprising the entire extracellular domain, expressed in CHO cells (protein, UniProt Q14242 18-320, looked up)
extracellular domain: LQLWDTWADEAEKALGPLLARDRRQATEYEYLDYDFLPETEPPEMLRNSTDTTPLTGPGTPESTTVEPAARRSTGLDAGGAVTELTTELANMGNLSTDSAAMEIQTTQPAATEAQTTQPVPTEAQTTPLAATEAQTTRLTATEAQTTPLAATEAQTTPPAATEAQTTQPTGLEAQTTAPAAMEAQTTAPAAMEAQTTPPAAMEAQTTQTTAMEAQTTAPEATEAQTTQPTATEAQTTPLAAMEALSTEPSATEALSMEPTTKRGLFIPFSVSSVTHKGIPMAASNLSVNYPVGAPDHISVKQC
modifications: extracellular domain

Experiments:
P-selectin [1] = details: ref Leppänen et al., 2000; cited from earlier work
P-selectin [2] = assay type: binding; details: intermediate or high densities of P-selectin, as a function of wall shear stress

Molecule | Affinity for P-selectin (in words) (P-selectin [1]) | Initial tethering of ligand-coupled microspheres to P-selectin (in words) (P-selectin [2])
CC(=O)N[C@H]1[C@H]([C@H](O)[C@H](O)CO)O[C@@](O[C@H]2[C@@H](O)[C@@H](CO)O[C@@H](O[C@@H]([C@H](O[C@@H]3O[C@@H](C)[C@@H](O)[C@@H](O)[C@@H]3O)[C@H](C=O)NC(C)=O)[C@H](O)CO)[C@@H]2O)(C(=O)O)C[C@@H]1O [sLe^x, sialyl Lewis x] | very low affinity | 
B1 |  | tethered at identical rates
